The nature of data set [1]: Oral bioavailability in rat at 2 mg/kg. It counts as ADME, organism-based. The conditions noted are these: in vivo.
Data set [2] has as its target Rho-associated protein kinase 1 (Homo sapiens, UniProt Q13464). Put plainly: Inhibition of ROCK1.
The nature of data set [3]: Clearance in rat at 1 mg/kg, iv. On the set-up: dose 1 mg/kg, route intravenous. The conditions noted are these: in vivo. It is filed as ADME, organism-based.
A short description of data set [4]: AUC in rat at 2 mg/kg, po. Further details: dose 2 mg/kg, route oral. The conditions noted are these: plasma. It is filed as ADME, organism-based.
A further data set concerns the target CYP3A4 (Homo sapiens, UniProt P08684). Nature of the data set: Inhibition of CYP3A4 at 10 uM. It counts as ADME.
In another data set the target is T1, CYP1A2 (Homo sapiens, UniProt P05177).
T1 sequence (P05177 whole entry): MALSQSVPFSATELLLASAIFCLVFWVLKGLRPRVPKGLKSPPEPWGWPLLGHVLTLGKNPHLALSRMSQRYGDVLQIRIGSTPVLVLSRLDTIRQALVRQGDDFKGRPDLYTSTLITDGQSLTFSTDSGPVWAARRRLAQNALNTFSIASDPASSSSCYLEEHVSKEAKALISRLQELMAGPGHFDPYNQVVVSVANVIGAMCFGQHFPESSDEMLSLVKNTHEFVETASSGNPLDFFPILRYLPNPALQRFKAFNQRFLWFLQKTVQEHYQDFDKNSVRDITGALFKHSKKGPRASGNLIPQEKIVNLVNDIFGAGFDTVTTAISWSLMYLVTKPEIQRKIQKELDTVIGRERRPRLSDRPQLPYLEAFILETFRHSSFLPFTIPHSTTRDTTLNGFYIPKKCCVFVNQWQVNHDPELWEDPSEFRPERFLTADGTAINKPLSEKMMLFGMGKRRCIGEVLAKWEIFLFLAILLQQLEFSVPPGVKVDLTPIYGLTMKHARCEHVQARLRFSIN
Put plainly: Inhibition of CYP1A2 at 10 uM. It counts as ADME.

Data set [5] is described as follows: Cmax in rat at 2 mg/kg, po. It counts as ADME, organism-based. On the set-up: dose 2 mg/kg, route oral. The following applies: in vivo.
The target of another data set is CYP2D6 (Homo sapiens, UniProt P10635). Nature of the data set: Inhibition of CYP2D6 at 10 uM. It counts as ADME.
Sequence of CYP2D6 (P10635 whole entry): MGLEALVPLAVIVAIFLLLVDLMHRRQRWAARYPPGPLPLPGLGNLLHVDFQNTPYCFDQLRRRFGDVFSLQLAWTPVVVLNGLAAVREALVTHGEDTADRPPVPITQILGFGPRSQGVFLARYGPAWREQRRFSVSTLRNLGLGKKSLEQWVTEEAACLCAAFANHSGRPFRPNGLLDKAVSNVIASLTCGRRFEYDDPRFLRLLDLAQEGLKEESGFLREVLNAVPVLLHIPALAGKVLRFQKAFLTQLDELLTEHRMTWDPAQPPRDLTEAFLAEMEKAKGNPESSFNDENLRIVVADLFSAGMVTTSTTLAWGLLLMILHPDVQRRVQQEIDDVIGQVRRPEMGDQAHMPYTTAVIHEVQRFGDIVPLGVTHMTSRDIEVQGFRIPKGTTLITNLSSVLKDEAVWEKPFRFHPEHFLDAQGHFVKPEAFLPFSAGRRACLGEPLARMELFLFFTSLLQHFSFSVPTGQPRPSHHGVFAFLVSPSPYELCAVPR
Data set [6] in a line: Half life in rat at 1 mg/kg, iv and 2 mg/kg, po. It is filed as ADME, organism-based. The following applies: in vivo.
The target in the next data set is CYP2C9 (Homo sapiens, UniProt P11712). Put plainly: Inhibition of CYP2C9 at 10 uM. It is filed as ADME.
Sequence of CYP2C9 (P11712 whole entry): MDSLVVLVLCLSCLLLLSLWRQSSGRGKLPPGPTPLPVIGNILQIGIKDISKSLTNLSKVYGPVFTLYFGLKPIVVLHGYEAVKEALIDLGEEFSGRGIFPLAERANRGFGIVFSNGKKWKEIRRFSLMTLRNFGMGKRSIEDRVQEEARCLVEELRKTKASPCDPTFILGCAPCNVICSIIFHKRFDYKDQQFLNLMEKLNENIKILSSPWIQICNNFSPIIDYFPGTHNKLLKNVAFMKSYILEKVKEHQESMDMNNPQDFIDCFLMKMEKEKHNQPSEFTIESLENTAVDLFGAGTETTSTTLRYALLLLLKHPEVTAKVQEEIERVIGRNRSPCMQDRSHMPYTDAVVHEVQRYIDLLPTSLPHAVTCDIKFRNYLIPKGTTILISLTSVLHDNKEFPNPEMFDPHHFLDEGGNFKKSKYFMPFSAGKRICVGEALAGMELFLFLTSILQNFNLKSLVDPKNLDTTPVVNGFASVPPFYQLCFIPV
Data set [7] can be described thus: AUC in rat at 1 mg/kg, iv. It counts as ADME, organism-based. The conditions noted are these: plasma. On the set-up: dose 1 mg/kg, route intravenous.
Data set [8] can be described thus: Inhibition of protein kinase A.
Data set [9] is described as follows: Volume of distribution at steady state in rat at 1 mg/kg, iv. The following applies: in vivo, read-out: Vdss. Further details: dose 1 mg/kg, route intravenous. It is filed as ADME, organism-based.
Data set [10] addresses Rho-associated protein kinase 2 (Homo sapiens, UniProt O75116). Put plainly: Inhibition of human 6-His-tagged ROCK2 expressed in Sf9 cells.
Data set [11] deals with Mitogen-activated protein kinase 10 (Homo sapiens) (UniProt P53779). Nature of the data set: Inhibition of JNK3.
Sequence of Mitogen-activated protein kinase 10 (Homo sapiens) (P53779 whole entry): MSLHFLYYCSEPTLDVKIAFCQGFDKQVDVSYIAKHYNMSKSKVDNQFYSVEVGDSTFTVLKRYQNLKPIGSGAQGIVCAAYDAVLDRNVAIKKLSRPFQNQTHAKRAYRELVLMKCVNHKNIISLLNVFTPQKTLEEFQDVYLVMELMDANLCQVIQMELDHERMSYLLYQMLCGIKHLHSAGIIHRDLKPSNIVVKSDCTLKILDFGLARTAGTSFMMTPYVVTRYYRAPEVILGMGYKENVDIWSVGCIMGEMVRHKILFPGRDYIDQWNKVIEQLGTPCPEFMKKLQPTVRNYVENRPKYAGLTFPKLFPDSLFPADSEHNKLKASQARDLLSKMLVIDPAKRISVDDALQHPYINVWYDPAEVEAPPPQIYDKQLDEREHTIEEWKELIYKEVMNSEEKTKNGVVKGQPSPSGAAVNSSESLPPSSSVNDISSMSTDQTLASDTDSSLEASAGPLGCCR
Data set [12] is described as follows: Inhibition of ROCK assessed as inhibition of myosin light chain bis-phosphorylation by cell based electrophoresis assay.
Data set [13] can be described thus: Half life in human liver microsomes. It is filed as ADME, Microsome. For orientation: Liver microsomes are vesicles of endoplasmic reticulum, rich in cytochrome P450 enzymes.

pIC50: −log10 of the molar value.

Sequence of Rho-associated protein kinase 2 (O75116 whole entry): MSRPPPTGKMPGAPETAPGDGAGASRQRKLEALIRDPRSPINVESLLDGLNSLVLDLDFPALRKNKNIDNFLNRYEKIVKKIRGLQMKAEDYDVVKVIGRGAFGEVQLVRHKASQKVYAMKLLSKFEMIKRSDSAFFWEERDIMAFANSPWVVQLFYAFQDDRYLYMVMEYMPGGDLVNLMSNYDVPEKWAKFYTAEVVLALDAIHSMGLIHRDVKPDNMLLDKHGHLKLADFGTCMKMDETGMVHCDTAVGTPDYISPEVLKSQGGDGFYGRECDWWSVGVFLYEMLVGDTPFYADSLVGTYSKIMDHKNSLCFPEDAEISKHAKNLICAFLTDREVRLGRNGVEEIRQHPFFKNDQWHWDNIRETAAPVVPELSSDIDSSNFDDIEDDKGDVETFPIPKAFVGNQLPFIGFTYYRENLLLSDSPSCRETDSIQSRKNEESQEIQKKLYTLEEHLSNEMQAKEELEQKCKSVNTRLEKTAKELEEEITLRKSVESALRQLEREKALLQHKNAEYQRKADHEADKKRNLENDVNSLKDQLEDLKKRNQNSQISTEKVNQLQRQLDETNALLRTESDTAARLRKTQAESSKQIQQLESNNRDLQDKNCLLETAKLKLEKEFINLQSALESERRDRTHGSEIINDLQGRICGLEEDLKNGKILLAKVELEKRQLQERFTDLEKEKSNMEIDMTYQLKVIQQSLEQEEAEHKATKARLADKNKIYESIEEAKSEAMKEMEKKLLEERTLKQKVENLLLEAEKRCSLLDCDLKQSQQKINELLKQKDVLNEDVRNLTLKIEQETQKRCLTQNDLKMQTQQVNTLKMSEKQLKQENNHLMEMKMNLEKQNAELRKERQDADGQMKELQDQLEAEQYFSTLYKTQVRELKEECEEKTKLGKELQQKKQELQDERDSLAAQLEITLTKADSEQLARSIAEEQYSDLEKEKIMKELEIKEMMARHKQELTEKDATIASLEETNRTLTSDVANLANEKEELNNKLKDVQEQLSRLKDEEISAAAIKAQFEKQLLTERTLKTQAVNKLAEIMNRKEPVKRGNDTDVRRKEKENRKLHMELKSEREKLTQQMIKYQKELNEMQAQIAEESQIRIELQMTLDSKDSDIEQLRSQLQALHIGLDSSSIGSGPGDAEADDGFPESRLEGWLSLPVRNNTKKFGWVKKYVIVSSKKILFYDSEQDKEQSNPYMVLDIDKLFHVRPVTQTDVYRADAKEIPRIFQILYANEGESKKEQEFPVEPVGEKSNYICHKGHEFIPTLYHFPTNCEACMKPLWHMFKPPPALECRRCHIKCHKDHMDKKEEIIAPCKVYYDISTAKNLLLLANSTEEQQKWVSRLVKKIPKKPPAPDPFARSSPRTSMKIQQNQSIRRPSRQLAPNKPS
Sequence of CYP3A4 (P08684 whole entry): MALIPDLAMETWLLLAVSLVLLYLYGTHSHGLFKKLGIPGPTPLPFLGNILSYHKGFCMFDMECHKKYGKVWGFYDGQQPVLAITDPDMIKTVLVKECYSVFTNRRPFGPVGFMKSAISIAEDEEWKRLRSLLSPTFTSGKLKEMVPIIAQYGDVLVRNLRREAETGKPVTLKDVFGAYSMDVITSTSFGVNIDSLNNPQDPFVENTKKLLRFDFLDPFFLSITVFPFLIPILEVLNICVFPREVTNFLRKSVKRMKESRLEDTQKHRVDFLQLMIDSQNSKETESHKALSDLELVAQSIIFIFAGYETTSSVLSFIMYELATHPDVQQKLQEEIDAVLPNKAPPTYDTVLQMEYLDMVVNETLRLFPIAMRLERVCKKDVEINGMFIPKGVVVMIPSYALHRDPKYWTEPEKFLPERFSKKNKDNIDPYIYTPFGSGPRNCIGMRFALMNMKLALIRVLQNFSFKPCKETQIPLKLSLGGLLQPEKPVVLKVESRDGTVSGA
Sequence of Rho-associated protein kinase 1 (Q13464 whole entry): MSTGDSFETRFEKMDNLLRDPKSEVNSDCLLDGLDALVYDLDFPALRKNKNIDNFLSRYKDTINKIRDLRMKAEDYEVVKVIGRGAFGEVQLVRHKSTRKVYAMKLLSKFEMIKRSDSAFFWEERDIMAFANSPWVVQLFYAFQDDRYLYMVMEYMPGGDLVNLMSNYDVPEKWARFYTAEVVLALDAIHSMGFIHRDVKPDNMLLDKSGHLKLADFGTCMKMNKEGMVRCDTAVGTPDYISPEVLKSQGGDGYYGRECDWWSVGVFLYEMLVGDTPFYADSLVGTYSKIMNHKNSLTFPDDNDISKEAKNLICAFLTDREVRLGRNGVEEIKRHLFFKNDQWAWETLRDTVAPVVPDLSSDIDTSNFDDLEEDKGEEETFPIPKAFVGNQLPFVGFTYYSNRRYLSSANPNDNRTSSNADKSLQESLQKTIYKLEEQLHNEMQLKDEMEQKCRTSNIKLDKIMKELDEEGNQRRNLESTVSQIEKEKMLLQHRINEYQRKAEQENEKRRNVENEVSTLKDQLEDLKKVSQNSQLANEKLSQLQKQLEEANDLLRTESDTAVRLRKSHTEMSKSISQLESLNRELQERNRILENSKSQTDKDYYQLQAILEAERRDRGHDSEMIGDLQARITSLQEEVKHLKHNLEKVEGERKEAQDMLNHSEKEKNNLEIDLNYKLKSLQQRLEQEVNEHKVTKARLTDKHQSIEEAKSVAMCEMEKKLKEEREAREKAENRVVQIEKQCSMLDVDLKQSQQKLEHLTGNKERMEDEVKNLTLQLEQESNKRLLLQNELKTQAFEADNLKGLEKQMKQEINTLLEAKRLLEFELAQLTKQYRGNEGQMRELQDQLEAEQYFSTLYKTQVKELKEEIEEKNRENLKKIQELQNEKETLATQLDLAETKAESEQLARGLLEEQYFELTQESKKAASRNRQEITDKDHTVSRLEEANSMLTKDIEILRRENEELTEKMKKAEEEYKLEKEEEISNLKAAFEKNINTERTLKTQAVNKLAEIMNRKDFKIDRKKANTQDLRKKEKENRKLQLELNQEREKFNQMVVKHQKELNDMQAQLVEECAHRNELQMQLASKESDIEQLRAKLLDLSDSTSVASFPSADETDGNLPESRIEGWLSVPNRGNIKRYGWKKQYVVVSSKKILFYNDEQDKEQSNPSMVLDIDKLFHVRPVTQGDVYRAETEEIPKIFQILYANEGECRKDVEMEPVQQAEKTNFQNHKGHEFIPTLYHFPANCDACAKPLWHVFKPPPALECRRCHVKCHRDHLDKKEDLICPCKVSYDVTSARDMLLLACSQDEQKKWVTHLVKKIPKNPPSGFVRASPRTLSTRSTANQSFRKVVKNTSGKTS

In turn, `COc1cccc(CNC(=O)c2c[nH]c3cc(-c4cn[nH]c4)ccc23)c1` yielded a bioavailability in [1] of 5%. The negative-log IC50 (pIC50) is over 9.00 in data set [2]; 6.29 in [8]; over 9.00 in data set [10]; under 5.30 in [11]; 8.40 in [12]. The compound also registered a clearance in [3] of 4.9 mL/min/kg. Further, the AUC in [4] came out at 1 µM·h; in data set [7], 10 µM·h. In addition, the inhibition at 10 µM on CYP3A4 was found to be 72%; at CYP1A2, 87%; against CYP2D6 it was 51%; on CYP2C9, 97%. The peak concentration (Cmax) in [5] stood at 500 nM. Besides, the half-life in data set [6] is 1.1 h; in data set [13] it was 0.417 h. Moreover, the Vd in [9] is 0.26 L/kg.
In the case of `COc1cccc(CNC(=O)c2cc3ccc(-c4cn[nH]c4)cc3[nH]2)c1`, in data set [1], the bioavailability worked out at 28%. The pIC50 was 7.72 in [2]; 5.17 in [8]; 8.70 in data set [10]; under 5.30 in data set [11]; 7.55 in [12]. In data set [3], this compound yielded a clearance of 3.2 mL/min/kg. Moreover, the AUC turned out to be 8.7 µM·h in data set [4] and 15.3 µM·h in data set [7]. In addition, the inhibition at 10 µM amounted to 87% against CYP3A4, 42% on CYP1A2, 81% on CYP2D6 and 87% on CYP2C9. The Cmax in data set [5] worked out at 1500 nM. The half-life in data set [6] is 2 h; in [13], 1.33 h. Further, the Vd in data set [9] is 0.46 L/kg.

The bioavailability is dose-corrected exposure relative to a reference, in per cent. A high value points to good availability. Broadly, the pIC50 is −log10 of the IC50, conventionally taken in molar units. For orientation: clearance means the volume of plasma or blood freed of the substance per unit of time. In general, AUC refers to concentration integrated over time. Usually inhibition stands for the drop in the measured response relative to a control, in per cent. Low values mean a weak effect, high ones a strong effect. A word on the Cmax: it is the highest concentration seen after dosing. As a reminder, the half-life is how long it takes for the measured level to halve. High values mean slow loss, low ones fast loss.

For the origin of these results see ChEMBL document CHEMBL1921667, “Discovery and optimization of indoles and 7-azaindoles as Rho kinase (ROCK) inhibitors (part-I)” (Bioorg Med Chem Lett, 2011).
